The values that follow come from patent publication US12060588B2, “Methods of editing DNA methylation” (Whitehead Institute for Biomedical Research, priority 2016, dated 2024).

For assay [1], the system named is Snrpn promoter region (Dazl-Snrpn-GFP reporter). The assay is described as follows: Activation of the Dazl-Snrpn-GFP methylation reporter in mESCs (flow cytometry). It is filed as cell-based, mouse. To be noted: lentiviral infection, 3 days, FACS. The method, then: FIGS. 1A-IF depict activation of the Daz1-Snrpn-GFP reporter by dCas9-Tet1. […] FIG. 1B is a schematic representation of targeting the Snrpn promoter region by dCas9-Tet1 with specific gRNAs to erase methylation and activate GFP expression. […] Percentage of GFP positive cells were calculated by flow cytometric analysis of these cells 3-day post infection, and shown as the mean percentages of GFP positive cells±SD of two biological replicates. Note that the percentages of GFP-positive cells are expressed as the fraction of infected Cherry-positive cells. […] Scale bar: 250 um. Right: provides percentages of GFP positive colonies were quantified, and shown as the mean percentages of GFP positive cells±SD of two biological replicates. […] FIG. 1F provides methylation levels of individual CpGs in the Snrpn promoter region and the adjacent Dazl locus. Shown is the mean percentage±SD of two biological replicates.
To assess whether the dCas9-Tet1 and -Dnmt3a fusion constructs would induce demethylation or de novo methylation, respectively, of specific sequences, we utilized a methylation reporter system previously developed in our laboratory (Stelzer et al., 2015). This reporter system consists of a synthetic methylation-sensing promoter (conserved sequence elements from the promoter of an imprinted gene, Snrpn) that controls the expression of a green fluorescence protein (GFP). […]
(In flow cytometry, cells or beads pass a laser one at a time.)

The subject of assay [2] is MyoD distal enhancer (DMR-5). The assay is described as follows: Bisulfite sequencing of the MyoD DMR-5 region in C3H10T1/2 cells. The settings on record: with target gRNAs, sorted infection-positive cells. Format: cell-based, mouse. From the text:
FIGS. 4A-4H depict targeted demethylation of the MyoD distal enhancer by dCas9-Tet1 to facilitate conversion of fibroblasts to myoblasts. FIG. 4A provides a schematic representation of targeting the MyoD distal enhancer (DE) region in DMR-5 by dCas9-Tet1 (dC-T) with specific gRNAs. […] Cherry positive cells were FACS sorted for RT-qPCR analysis. Bars represent mean±SD of three experimental replicates. FIG. 4C bisulfite sequencing of cells in FIG. 4B. […] Shown is the mean percentage±SD of two biological replicates. […] FIG. 4F provides quantification of MyoD positive cell ratio 14-day post infection with lentiviruses expressing dC-T alone, dC-T with gRNAs targeting DMR-5, and dC-dT with the target gRNAs. […] FIG. 4H provides quantification of myotube density in MHC positive clusters with more than 2 or 5 nuclei at 14-days after infection. […] Data are quantified from 3-5 representative images for F-H. Bars represent mean±SD.
Six muscle-specific DMRs have been described within the 50 kb upstream region of MyoD gene (Schultz et al., 2015), and DMR-5 overlaps with a known distal enhancer of MyoD (Brunk et al., 1996) as shown in FIG. 4A. […] The cells were cultured for 14 days and analyzed for MyoD and MHC (Myosin Heavy chain, a myotube specific marker) expression. […]

On to “dCas9-Tet1: catalytically inactive Cas9 (dCas9) fused through NLS to the Tet1 catalytic domain, SEQ ID NO: 159; lentivirally expressed with gRNAs”, for which the “GFP positive cells among the Cherry positive population” value is recorded as “about 26%” in assay [1] (with 4 target gRNAs (Snrpn promoter)) and 1% in assay [1] (with a scrambled gRNA). In addition, the “methylation in the DMR-5 region” value in assay [2] is on record as “substantial reduction of methylation”.
